According to ChEMBL document CHEMBL5465560, “Selectivity Literature for EUbOPEN Chemogenomic Library” (2024):

Key:
[1] = target: Insulin receptor (Homo sapiens, UniProt P06213); conditions: at 10 µM
[2] = target: Cyclin-dependent kinase-like 1 (Homo sapiens) (UniProt Q00532); conditions: at 10 µM
[3] = target: Dual specificity protein kinase CLK3 (Homo sapiens, UniProt P49761); assay: Selectivity interaction (KinomeScan (DiscoverX)) EUB0001049a CLK3; conditions: at 1 µM
[4] = target: T1, Serine/threonine-protein kinase TAO3 (Homo sapiens) (UniProt Q9H2K8); assay: Selectivity interaction (Kinase panel (Invitrogen)) EUB0000639a TAOK3; conditions: at 200 nM
T1 sequence (whole entry): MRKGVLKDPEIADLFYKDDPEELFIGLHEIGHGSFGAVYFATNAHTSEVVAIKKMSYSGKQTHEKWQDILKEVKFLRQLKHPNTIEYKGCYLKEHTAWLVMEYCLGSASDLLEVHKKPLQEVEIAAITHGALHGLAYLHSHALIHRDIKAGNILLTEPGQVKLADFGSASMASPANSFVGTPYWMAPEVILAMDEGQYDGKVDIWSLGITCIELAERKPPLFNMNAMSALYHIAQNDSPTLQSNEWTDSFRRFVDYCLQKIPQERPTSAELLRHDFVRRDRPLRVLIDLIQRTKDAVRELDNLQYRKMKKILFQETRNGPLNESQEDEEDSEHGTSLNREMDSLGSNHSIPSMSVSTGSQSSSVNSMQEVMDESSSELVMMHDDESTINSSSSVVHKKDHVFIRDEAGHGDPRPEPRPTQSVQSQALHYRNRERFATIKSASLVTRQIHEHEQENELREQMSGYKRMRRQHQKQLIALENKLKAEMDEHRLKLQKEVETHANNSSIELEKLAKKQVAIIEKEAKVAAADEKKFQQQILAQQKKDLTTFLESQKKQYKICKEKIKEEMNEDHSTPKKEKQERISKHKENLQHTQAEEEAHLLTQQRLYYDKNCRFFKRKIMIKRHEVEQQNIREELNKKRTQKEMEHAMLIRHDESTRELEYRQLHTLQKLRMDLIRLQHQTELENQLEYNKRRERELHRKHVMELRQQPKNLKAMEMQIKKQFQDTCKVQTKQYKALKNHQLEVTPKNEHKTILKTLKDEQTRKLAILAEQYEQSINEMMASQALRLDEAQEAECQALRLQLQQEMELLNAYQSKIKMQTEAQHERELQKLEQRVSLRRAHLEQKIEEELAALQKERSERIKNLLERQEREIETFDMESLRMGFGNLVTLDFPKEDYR

[5] = target: T2, Serine/threonine-protein kinase D1 (Homo sapiens) (UniProt Q15139); assay: Selectivity interaction (Kinase panel (Z-LYTE Assay)) EUB0001632a PRKD1; conditions: at 10 µM
T2 sequence (whole entry): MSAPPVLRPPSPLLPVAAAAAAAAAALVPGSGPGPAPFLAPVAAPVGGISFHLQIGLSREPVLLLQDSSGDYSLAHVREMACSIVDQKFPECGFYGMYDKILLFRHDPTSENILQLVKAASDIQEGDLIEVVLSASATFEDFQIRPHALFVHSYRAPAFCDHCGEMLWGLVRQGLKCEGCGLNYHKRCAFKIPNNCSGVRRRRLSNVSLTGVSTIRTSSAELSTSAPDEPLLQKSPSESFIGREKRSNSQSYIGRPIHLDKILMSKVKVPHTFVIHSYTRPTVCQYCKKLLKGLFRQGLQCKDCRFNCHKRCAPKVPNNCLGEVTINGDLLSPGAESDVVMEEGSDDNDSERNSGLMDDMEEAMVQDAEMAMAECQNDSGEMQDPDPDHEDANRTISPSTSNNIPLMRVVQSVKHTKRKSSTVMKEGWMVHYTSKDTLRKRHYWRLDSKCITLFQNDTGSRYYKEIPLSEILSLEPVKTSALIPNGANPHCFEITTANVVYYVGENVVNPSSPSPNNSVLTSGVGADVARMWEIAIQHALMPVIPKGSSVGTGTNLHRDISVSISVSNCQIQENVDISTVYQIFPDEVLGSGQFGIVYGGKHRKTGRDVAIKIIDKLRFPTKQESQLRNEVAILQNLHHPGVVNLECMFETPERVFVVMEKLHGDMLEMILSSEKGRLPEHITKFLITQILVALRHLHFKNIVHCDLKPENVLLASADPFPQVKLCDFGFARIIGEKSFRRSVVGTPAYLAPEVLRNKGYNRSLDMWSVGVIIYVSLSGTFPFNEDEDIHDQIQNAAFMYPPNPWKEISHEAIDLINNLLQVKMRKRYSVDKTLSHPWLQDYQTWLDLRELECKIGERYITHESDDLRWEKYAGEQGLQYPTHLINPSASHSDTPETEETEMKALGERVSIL

[6] = target: Non-receptor tyrosine-protein kinase TYK2 (Homo sapiens, UniProt P29597); assay: Selectivity interaction (KinomeScan (DiscoverX)) EUB0000595a TYK2; conditions: at 10 µM
[7] = target: Proto-oncogene tyrosine-protein kinase Src (Homo sapiens, UniProt P12931); assay: Selectivity interaction (KinomeScan (DiscoverX)) EUB0000229b SRC; conditions: at 10 µM
[8] = target: Ribosomal protein S6 kinase alpha-2 (Homo sapiens) (UniProt Q15349); assay: Selectivity interaction (KinomeScan (DiscoverX)) EUB0000655a RPS6KA2; conditions: at 10 µM
[9] = target: Tyrosine-protein kinase JAK1 (Homo sapiens, UniProt P23458); assay: Selectivity interaction (KinomeScan (DiscoverX)) EUB0000618a JAK1; conditions: at 10 µM
[10] = tested on: RAF proto-oncogene serine/threonine-protein kinase (Homo sapiens), P04049 [Y340D,Y341D]; assay: Selectivity interaction (SelectScreen profiling (Invitrogen)) EUB0000607a RAF1; conditions: at 2 µM
[11] = target: Homeodomain-interacting protein kinase 1 (Homo sapiens, UniProt Q86Z02); assay: Selectivity interaction (KinomeScan (DiscoverX)) EUB0000607a HIPK1; conditions: at 10 µM
[12] = target: Sodium-dependent noradrenaline transporter (Homo sapiens, UniProt P23975); assay: Selectivity interaction (Panel of kinases, GPCRs, ion channels and transporters (enzymatic assay)) EUB0000223bCl SLC6A2
Sodium-dependent noradrenaline transporter, sequence (P23975 whole entry): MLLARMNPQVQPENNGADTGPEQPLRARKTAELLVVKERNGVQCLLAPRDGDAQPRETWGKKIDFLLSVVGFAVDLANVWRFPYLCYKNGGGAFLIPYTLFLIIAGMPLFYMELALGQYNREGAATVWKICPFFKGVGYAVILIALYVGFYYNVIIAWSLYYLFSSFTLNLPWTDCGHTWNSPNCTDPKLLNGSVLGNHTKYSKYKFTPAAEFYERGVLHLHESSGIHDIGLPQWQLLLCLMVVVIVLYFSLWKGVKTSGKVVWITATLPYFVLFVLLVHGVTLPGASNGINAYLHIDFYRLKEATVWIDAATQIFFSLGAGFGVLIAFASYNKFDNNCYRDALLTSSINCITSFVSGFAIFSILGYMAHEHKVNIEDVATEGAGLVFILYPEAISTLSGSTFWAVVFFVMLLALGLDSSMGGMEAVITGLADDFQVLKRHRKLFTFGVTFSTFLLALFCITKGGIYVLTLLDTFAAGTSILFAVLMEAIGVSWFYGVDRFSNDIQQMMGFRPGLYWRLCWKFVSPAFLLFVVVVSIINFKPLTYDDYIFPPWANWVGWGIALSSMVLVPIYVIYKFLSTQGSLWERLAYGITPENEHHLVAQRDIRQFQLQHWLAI

Non-receptor tyrosine-protein kinase TYK2, sequence (P29597 whole entry): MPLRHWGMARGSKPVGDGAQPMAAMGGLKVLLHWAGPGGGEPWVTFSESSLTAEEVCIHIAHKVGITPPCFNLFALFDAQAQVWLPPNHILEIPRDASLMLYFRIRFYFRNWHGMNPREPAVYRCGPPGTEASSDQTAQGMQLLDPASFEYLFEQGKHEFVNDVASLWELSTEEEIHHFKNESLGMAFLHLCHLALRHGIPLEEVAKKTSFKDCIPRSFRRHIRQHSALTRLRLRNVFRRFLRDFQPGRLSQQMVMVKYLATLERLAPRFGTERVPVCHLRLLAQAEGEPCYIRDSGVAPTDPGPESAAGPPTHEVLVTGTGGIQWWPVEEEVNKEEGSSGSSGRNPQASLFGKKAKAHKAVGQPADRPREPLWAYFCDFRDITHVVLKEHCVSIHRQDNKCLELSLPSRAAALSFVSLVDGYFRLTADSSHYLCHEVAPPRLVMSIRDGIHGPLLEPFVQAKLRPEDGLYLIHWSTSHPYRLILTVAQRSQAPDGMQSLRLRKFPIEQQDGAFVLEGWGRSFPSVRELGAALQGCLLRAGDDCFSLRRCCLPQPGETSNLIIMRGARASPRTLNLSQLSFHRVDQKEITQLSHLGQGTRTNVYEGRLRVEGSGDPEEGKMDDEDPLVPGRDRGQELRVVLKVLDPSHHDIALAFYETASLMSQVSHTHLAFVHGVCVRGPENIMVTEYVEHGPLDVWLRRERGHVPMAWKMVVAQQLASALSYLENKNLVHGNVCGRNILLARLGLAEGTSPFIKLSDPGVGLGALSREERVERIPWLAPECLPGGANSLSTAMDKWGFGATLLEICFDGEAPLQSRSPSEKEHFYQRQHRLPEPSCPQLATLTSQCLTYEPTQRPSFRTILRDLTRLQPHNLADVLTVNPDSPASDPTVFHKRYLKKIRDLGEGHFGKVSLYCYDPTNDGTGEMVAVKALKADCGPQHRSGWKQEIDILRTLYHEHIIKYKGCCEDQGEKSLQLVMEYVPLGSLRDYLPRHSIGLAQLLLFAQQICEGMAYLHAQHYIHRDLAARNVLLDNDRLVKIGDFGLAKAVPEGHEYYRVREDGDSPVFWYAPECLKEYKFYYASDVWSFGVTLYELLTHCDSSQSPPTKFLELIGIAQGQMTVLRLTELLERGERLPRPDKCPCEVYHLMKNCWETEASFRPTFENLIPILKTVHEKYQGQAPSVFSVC
RAF proto-oncogene serine/threonine-protein kinase (Homo sapiens), P04049 [Y340D,Y341D], sequence (P04049 whole entry Y340D/Y341D): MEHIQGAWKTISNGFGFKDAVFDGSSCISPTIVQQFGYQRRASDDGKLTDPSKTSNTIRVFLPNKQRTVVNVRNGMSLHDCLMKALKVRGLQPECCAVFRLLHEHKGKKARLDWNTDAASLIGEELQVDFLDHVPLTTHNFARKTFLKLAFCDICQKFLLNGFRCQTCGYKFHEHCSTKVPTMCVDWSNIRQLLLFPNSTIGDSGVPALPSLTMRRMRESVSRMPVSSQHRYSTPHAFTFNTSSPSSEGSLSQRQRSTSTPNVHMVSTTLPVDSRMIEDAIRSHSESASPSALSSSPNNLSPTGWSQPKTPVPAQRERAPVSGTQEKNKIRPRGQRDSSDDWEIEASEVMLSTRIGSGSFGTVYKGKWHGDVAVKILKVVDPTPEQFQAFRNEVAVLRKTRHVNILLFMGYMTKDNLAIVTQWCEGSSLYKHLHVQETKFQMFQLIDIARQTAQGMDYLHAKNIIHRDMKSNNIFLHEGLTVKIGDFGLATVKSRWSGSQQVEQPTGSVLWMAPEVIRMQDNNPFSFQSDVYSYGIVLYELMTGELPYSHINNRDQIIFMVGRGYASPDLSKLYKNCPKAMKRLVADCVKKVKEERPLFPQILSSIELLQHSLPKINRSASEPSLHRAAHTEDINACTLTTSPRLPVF
Dual specificity protein kinase CLK3, sequence (P49761 whole entry, looked up): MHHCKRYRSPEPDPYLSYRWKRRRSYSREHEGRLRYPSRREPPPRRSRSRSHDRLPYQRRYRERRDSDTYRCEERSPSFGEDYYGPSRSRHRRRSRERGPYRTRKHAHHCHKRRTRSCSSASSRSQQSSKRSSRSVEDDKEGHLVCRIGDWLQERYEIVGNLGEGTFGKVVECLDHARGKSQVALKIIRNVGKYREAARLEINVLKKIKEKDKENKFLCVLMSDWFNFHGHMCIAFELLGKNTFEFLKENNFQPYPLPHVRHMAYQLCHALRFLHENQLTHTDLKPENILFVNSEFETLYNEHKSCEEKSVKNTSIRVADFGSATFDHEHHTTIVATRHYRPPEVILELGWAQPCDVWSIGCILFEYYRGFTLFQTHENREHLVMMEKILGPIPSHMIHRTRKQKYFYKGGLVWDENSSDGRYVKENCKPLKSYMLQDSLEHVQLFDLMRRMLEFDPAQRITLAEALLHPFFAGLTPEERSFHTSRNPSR
Insulin receptor, sequence (P06213 28-758 limits assumed): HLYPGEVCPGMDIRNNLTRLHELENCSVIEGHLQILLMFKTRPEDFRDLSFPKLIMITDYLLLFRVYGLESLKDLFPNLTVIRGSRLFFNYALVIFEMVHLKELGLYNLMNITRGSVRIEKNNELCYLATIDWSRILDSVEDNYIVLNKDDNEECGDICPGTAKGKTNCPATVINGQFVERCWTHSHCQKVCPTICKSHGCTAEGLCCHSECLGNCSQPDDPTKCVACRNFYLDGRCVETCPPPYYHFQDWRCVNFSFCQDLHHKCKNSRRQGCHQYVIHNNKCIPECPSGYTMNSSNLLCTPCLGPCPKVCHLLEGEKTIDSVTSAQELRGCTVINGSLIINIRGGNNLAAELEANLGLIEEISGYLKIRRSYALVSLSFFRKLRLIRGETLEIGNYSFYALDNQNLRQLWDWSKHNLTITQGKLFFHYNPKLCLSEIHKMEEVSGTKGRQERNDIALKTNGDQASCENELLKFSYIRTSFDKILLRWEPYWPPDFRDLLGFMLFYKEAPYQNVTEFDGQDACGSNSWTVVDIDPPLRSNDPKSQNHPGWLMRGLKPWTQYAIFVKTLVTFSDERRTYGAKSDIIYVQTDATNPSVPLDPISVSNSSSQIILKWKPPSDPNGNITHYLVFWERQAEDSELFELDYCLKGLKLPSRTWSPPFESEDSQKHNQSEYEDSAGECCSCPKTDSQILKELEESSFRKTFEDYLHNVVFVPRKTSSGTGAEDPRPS
Insulin receptor, sequence (P06213 763-1382 limits assumed): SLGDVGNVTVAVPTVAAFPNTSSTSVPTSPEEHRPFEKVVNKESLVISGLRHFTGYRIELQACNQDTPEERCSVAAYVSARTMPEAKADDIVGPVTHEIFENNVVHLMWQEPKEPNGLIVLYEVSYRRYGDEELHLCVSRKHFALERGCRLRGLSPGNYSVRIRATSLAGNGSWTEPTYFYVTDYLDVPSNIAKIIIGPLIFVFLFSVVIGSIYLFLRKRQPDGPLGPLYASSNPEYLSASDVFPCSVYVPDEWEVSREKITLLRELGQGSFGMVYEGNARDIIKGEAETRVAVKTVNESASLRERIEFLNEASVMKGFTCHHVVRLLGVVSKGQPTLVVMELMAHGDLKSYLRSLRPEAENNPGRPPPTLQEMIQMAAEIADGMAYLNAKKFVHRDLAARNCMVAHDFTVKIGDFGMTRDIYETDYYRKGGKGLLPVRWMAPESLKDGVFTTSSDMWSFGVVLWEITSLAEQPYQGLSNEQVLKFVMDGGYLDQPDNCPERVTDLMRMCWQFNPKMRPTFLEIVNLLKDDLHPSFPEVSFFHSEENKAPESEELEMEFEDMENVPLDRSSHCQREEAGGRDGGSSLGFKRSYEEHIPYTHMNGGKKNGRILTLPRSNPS
Proto-oncogene tyrosine-protein kinase Src, sequence (P12931 2-536 limits assumed): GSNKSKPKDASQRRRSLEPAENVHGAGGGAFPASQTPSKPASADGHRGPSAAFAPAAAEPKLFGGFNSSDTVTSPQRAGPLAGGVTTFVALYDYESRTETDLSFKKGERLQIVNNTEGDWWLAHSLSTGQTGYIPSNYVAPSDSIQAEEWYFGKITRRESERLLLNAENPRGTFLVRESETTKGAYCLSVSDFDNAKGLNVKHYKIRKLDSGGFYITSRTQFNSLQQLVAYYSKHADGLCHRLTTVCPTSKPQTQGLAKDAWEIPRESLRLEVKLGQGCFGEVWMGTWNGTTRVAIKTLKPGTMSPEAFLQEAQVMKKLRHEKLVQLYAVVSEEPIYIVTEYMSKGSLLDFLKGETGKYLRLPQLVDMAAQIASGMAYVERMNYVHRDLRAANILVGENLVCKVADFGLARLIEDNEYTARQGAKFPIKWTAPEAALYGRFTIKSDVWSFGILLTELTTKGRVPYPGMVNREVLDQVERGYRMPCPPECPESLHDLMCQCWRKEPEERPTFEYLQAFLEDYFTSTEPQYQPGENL

Cc1cc([C@@H](C)Nc2ccccc2C(=O)O)c2nc(N3CCOCC3)cc(=O)n2c1 [AZD-6482]
% of control [1]: 100%
% of control [2]: 100%

COc1cc(Nc2nc(C)cc(-c3cnn4nc(OC)ccc34)n2)cc(C(F)(F)F)c1
% of control [3]: 80%

CC[C@@H]1[C@H](F)C(=O)N[C@@H]1COc1nccc2cc(C(N)=O)c(OC)cc12 [ZIMLOVISERTIB]
% of inhibition [4]: -1.02%

Cn1cc(-n2cnc3c(NCc4nc5cc(Cl)c(Cl)cc5[nH]4)nc(N4CCOCC4)nc32)cn1
% of control [5]: 3.91%

COCC(=O)NC/C=C/c1ccc2ncnc(Nc3ccc(Oc4ccc(C)nc4)c(C)c3)c2c1 [CP-724714]
% of control [6]: 100%

COc1cc(N(C)c2ccnc3ccc(C(F)(F)F)cc23)cc(OC)c1OC
% binding [7]: 100%

CN(C)CCOc1ccc(-c2nc(-c3ccncc3)c(-c3ccc4c(c3)CC/C4=N\O)[nH]2)cc1
% of control [8]: 61%

O[C@H]1CC[C@H](Nc2ncc3nc(Nc4c(F)cc(F)cc4F)n([C@H]4CCOC4)c3n2)CC1
% of control [9]: 70%

CNC(=O)Nc1ccc(-c2nc(N3CC4CCC(C3)O4)c3cnn(C4CCC5(CC4)OCCO5)c3n2)cc1
% of inhibition [10]: 12%
% of control [11]: 100%

COc1cc(C(=O)N2CC[C@@H](O)[C@@H](N)C2)cc2nc(-c3cc4ccccc4n3CC3CC3)n(C)c12
pXC50 [12]: 4.7 M
